Test results taken from the supplement of paper PMC11208160.
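Throughout, for recombinant UMI read abundance after kanamycin selection (control-corrected): IS621 bridge recombinase in Escherichia coli cells against a fixed T5 target plasmid.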
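Throughout, for recombinant barcode read abundance after kanamycin selection (control-corrected): IS621 recombinase and bridge RNA in Escherichia coli cells.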

Test: recombinant barcode read abundance after kanamycin selection (control-corrected) (log10(CPM+1)); higher = more efficient recombination; sequences stand for … in AGTGCAGAGAAAATCGGCCAGTTTTCTCTGCCTGCAGTCCGCATGCCGT…AGATTTATGCAGCGGACTGCCTTTCTCCCAAAGTGATAAACCGGACAGTATCATGGACCGGTTTTCCCGGTAATCCGTATTTGCAAGGTTGGTTTCACT; site = the 11-nt target
Description: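 Pooled E. coli target-specificity screen for the IS621 bridge recombinase. Each library plasmid pairs an 11-nt target (CT core) with a bridge RNA whose target-binding loop (9-nt LTG + 4-nt RTG) is reprogrammed; the rest of the 177-nt WT IS621 bridge RNA scaffold is fixed. The plasmid is co-electroporated with a WT donor plasmid; recombinase is induced with 0.1 mM IPTG and recombinants are selected on kanamycin. Recombinant barcodes are sequenced, converted to CPM, averaged over two biological replicates and corrected by the unselected control CPM. Molecule = full bridge RNA written as DNA: LTG = specificity nt 1-9, RTG = reverse complement of specificity nt 8-11, in the WT scaffold.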
In the case of “AAAACTACTTGGGTTCTAACCTGTTGCCA (site AAAACTACTTG)”, the “recombinant barcode read abundance (log10)” value is reported as 0.2.
With “AAAACTACTTGGGTTCTAACCTGTTGCCA (site AATGCTACTTG)” the “recombinant barcode read abundance (log10)” value was 0.15.
For “AAAAGCCCTTGGGTTCTAACCTGTTGCCT (site AAAAGCCCTAG)”, the “recombinant barcode read abundance (log10)” value was 0.77.
In the case of “AAAAGCCCTTGGGTTCTAACCTGTTGCCT (site ACAAGCCCTAG)”, the “recombinant barcode read abundance (log10)” value is reported as 0.154.
With “AAAAGCCCTTGGGTTCTAACCTGTTGCCT (site AGAAGCCCTAG)” the “recombinant barcode read abundance (log10)” value was 0.0771.
For “AAAAGCCCTTGGGTTCTAACCTGTTGCCT (site ATAAGCCCTAG)”, the “recombinant barcode read abundance (log10)” value was 0.357.
With “AAACGCTCTTGGGTTCTAACCTGTTGCCT (site AAACGCTCTAG)” the “recombinant barcode read abundance (log10)” value was 1.75.
With “AAACGCTCTTGGGTTCTAACCTGTTGCCT (site TAACGCTCTAG)” the “recombinant barcode read abundance (log10)” value was 0.446.
For “AAACTAACTTGGGTTCTAACCTGTTGCCT (site AAACTAACTAG)”, the “recombinant barcode read abundance (log10)” value was 1.31.
For “AAACTAACTTGGGTTCTAACCTGTTGCCT (site ACACTAACTAG)”, the “recombinant barcode read abundance (log10)” value was 0.167.
In the case of “AAACTAACTTGGGTTCTAACCTGTTGCCT (site AGACTAACTAG)”, the “recombinant barcode read abundance (log10)” value is reported as 0.0602.
For “AAACTAACTTGGGTTCTAACCTGTTGCCT (site ATACTAACTAG)”, the “recombinant barcode read abundance (log10)” value was 0.073.
With “AAACTTACTTGGGTTCTAACCTGTTGCCT (site AAACTTACTAG)” the “recombinant barcode read abundance (log10)” value was 0.721.
With “AAACTTACTTGGGTTCTAACCTGTTGCCT (site AGATTTACTAG)” the “recombinant barcode read abundance (log10)” value was 0.0102.
In the case of “AAAGCTCCTTGGGTTCTAACCTGTTGCTT (site AAAGCTACTAG)”, the “recombinant barcode read abundance (log10)” value is reported as 0.0734.
With “AAAGCTCCTTGGGTTCTAACCTGTTGCTT (site AAAGCTCCTAA)” the “recombinant barcode read abundance (log10)” value was 0.318.
In the case of “AAAGGGACTTGGGTTCTAACCTGTTGCCT (site AAAGGGACTAG)”, the “recombinant barcode read abundance (log10)” value is reported as 2.08.
For “AAAGGGACTTGGGTTCTAACCTGTTGCCT (site AAGGAGACTAG)”, the “recombinant barcode read abundance (log10)” value was 0.191.
In the case of “AAATCTGCTTGGGTTCTAACCTGTTGCCT (site AAATCTGCTAG)”, the “recombinant barcode read abundance (log10)” value is reported as 0.122.
In the case of “AAATCTGCTTGGGTTCTAACCTGTTGCCT (site GGTGGGACTGT)”, the “recombinant barcode read abundance (log10)” value is reported as 0.229.
With “AACAAGCCTTGGGTTCTAACCTGTTGCTG (site AACAAGCCTCA)” the “recombinant barcode read abundance (log10)” value was 0.896.
For “AACAAGCCTTGGGTTCTAACCTGTTGCTG (site AACATGCCTAA)”, the “recombinant barcode read abundance (log10)” value was 0.0487.
For “AACACGACTTGGGTTCTAACCTGTTGCTC (site AACACGACTGA)”, the “recombinant barcode read abundance (log10)” value was 0.171.
In the case of “AACACGACTTGGGTTCTAACCTGTTGCTC (site CCATATGCTAG)”, the “recombinant barcode read abundance (log10)” value is reported as 0.235.
In the case of “AACAGGCCTTGGGTTCTAACCTGTTGCCT (site AACAGGCCTAG)”, the “recombinant barcode read abundance (log10)” value is reported as 0.0525.
In the case of “AACAGGCCTTGGGTTCTAACCTGTTGCCT (site TGTGACACTTT)”, the “recombinant barcode read abundance (log10)” value is reported as 0.
In the case of “AACATACCTTGGGTTCTAACCTGTTGCCT (site AACATACCTAG)”, the “recombinant barcode read abundance (log10)” value is reported as 0.737.
For “AACATACCTTGGGTTCTAACCTGTTGCCT (site ATCATTCCTAG)”, the “recombinant barcode read abundance (log10)” value was 0.564.
With “AACATCACTTGGGTTCTAACCTGTTGCCG (site AACATCACTCG)” the “recombinant barcode read abundance (log10)” value was 1.08.
With “AACATCACTTGGGTTCTAACCTGTTGCCG (site AGCATCACTAG)” the “recombinant barcode read abundance (log10)” value was 0.
In the case of “AACCACTCTTGGGTTCTAACCTGTTGCCT (site AACCACTCTAG)”, the “recombinant barcode read abundance (log10)” value is reported as 2.42.
For “AACCACTCTTGGGTTCTAACCTGTTGCCT (site CACCACTCTAG)”, the “recombinant barcode read abundance (log10)” value was 0.942.
With “AACCACTCTTGGGTTCTAACCTGTTGCCT (site GACCACTCTAG)” the “recombinant barcode read abundance (log10)” value was 0.266.
With “AACCACTCTTGGGTTCTAACCTGTTGCCT (site TACCACTCTAG)” the “recombinant barcode read abundance (log10)” value was 1.46.
In the case of “AACCAGTCTTGGGTTCTAACCTGTTGCCG (site AACCAGTCTCG)”, the “recombinant barcode read abundance (log10)” value is reported as 0.898.
In the case of “AACCAGTCTTGGGTTCTAACCTGTTGCCG (site ACCCAGTCTTG)”, the “recombinant barcode read abundance (log10)” value is reported as 0.033.
In the case of “AACCCACCTTGGGTTCTAACCTGTTGCCT (site AACCCACCTAG)”, the “recombinant barcode read abundance (log10)” value is reported as 1.97.
In the case of “AACCCACCTTGGGTTCTAACCTGTTGCCT (site CACCCACCTAG)”, the “recombinant barcode read abundance (log10)” value is reported as 0.56.
With “AACCCACCTTGGGTTCTAACCTGTTGCCT (site GACCCACCTAG)” the “recombinant barcode read abundance (log10)” value was 0.0506.
For “AACCCACCTTGGGTTCTAACCTGTTGCCT (site TACCCACCTAG)”, the “recombinant barcode read abundance (log10)” value was 0.997.
For “AACGCCACTTGGGTTCTAACCTGTTGCCT (site AACGCCACTAG)”, the “recombinant barcode read abundance (log10)” value was 0.0293.
In the case of “AACGCCACTTGGGTTCTAACCTGTTGCCT (site GACGCCACTAG)”, the “recombinant barcode read abundance (log10)” value is reported as 0.0328.
In the case of “AACGGAGCTTGGGTTCTAACCTGTTGCGG (site AACGGAGCTCC)”, the “recombinant barcode read abundance (log10)” value is reported as 1.78.
With “AACGGAGCTTGGGTTCTAACCTGTTGCGG (site TGCGGAGCTCC)” the “recombinant barcode read abundance (log10)” value was 0.699.
With “AACGTACCTTGGGTTCTAACCTGTTGCAG (site AACGTACCTCT)” the “recombinant barcode read abundance (log10)” value was 1.28.
For “AACGTACCTTGGGTTCTAACCTGTTGCAG (site GTGAAGACTAA)”, the “recombinant barcode read abundance (log10)” value was 0.0773.
For “AACTAATCTTGGGTTCTAACCTGTTGCCT (site AACTAATCTAG)”, the “recombinant barcode read abundance (log10)” value was 0.327.
With “AACTAATCTTGGGTTCTAACCTGTTGCCT (site AACTCATCTAG)” the “recombinant barcode read abundance (log10)” value was 0.0864.
For “AACTAATCTTGGGTTCTAACCTGTTGCCT (site AACTGATCTAG)”, the “recombinant barcode read abundance (log10)” value was 0.0845.
In the case of “AACTAATCTTGGGTTCTAACCTGTTGCCT (site AACTTATCTAG)”, the “recombinant barcode read abundance (log10)” value is reported as 0.0117.
With “AACTAGTCTTGGGTTCTAACCTGTTGCTA (site AACCAGTCTTC)” the “recombinant barcode read abundance (log10)” value was 0.0577.
In the case of “AACTAGTCTTGGGTTCTAACCTGTTGCTA (site AACTAGTCTTA)”, the “recombinant barcode read abundance (log10)” value is reported as 1.27.
With “AACTATTCTTGGGTTCTAACCTGTTGCCT (site AACTATTCTAG)” the “recombinant barcode read abundance (log10)” value was 0.374.
In the case of “AACTATTCTTGGGTTCTAACCTGTTGCCT (site ATGTATTCTAG)”, the “recombinant barcode read abundance (log10)” value is reported as 0.114.
With “AACTCATCTTGGGTTCTAACCTGTTGCCT (site AACTAATCTAG)” the “recombinant barcode read abundance (log10)” value was 0.0366.
For “AACTCATCTTGGGTTCTAACCTGTTGCCT (site AACTCATCTAG)”, the “recombinant barcode read abundance (log10)” value was 0.378.
In the case of “AACTCATCTTGGGTTCTAACCTGTTGCCT (site AACTGATCTAG)”, the “recombinant barcode read abundance (log10)” value is reported as 0.149.
For “AACTCATCTTGGGTTCTAACCTGTTGCCT (site AACTTATCTAG)”, the “recombinant barcode read abundance (log10)” value was 0.0223.
For “AACTTATCTTGGGTTCTAACCTGTTGCCT (site AACTAATCTAG)”, the “recombinant barcode read abundance (log10)” value was 1.02.
For “AACTTATCTTGGGTTCTAACCTGTTGCCT (site AACTCATCTAG)”, the “recombinant barcode read abundance (log10)” value was 0.0843.

Test: recombinant UMI read abundance after kanamycin selection (control-corrected) (log10(CPM+1)); higher = more efficient recombination; extreme values may be limits of the assay; sequences stand for … in AGTGCAGAGAAAATCGGCCAGTTTTCTCTGCCTGCAGTCCGCATGCCGTGGGACCCCTTGGGTTCTAACCTGTTGCCTAGATTTATGCAGCGGACTGCCTTTCTCCCAAAGTGATAAACCGG…AGGTTGGTTTCACT; site = the 11-nt donor
Summary of the method: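 Counts of recombinant UMIs were reported as log10(CPM+1). Before that, they were converted to CPM, averaged over replicates and scaled using control-derived factors. They came from PCR across the donor–target junction after Escherichia coli carrying the pair library and target plasmid was plated on IPTG (0.07 mM) plus kanamycin, or unselected, in two replicates each.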
For “TTTGTTACATGGACCGGTTTTCCCGGTAATCCGTATTTGCC (site TTTGTTACTGG)”, the “recombinant UMI read abundance (log10)” value was 0.44.
For “TTTTTGGCATGGACCGGTTTTCCCGGTAATCCGTATTTGTG (site TATTTGGCTCA)”, the “recombinant UMI read abundance (log10)” value was 0.0105.
For “TTTTTGGCATGGACCGGTTTTCCCGGTAATCCGTATTTGTG (site TCTTTGGCTCA)”, the “recombinant UMI read abundance (log10)” value was 0.0102.
In the case of “TTTTTGGCATGGACCGGTTTTCCCGGTAATCCGTATTTGTG (site TGTTTGGCTCA)”, the “recombinant UMI read abundance (log10)” value is reported as 0.0296.
For “TTTTTGGCATGGACCGGTTTTCCCGGTAATCCGTATTTGTG (site TTTTTGGCTCA)”, the “recombinant UMI read abundance (log10)” value was 0.00438.
